Assays:
[1] = molecular target: T1, α-mannosidase (Jack Bean) (Canavalia ensiformis, UniProt C0HJB3); assay: Glycosidase specificity: α-mannosidase; type: biochemical; details: at 0.1 μM Montbretin A; read-out: RA (%), Residual Enzyme Activity
T1 sequence (C0HJB3 1-981): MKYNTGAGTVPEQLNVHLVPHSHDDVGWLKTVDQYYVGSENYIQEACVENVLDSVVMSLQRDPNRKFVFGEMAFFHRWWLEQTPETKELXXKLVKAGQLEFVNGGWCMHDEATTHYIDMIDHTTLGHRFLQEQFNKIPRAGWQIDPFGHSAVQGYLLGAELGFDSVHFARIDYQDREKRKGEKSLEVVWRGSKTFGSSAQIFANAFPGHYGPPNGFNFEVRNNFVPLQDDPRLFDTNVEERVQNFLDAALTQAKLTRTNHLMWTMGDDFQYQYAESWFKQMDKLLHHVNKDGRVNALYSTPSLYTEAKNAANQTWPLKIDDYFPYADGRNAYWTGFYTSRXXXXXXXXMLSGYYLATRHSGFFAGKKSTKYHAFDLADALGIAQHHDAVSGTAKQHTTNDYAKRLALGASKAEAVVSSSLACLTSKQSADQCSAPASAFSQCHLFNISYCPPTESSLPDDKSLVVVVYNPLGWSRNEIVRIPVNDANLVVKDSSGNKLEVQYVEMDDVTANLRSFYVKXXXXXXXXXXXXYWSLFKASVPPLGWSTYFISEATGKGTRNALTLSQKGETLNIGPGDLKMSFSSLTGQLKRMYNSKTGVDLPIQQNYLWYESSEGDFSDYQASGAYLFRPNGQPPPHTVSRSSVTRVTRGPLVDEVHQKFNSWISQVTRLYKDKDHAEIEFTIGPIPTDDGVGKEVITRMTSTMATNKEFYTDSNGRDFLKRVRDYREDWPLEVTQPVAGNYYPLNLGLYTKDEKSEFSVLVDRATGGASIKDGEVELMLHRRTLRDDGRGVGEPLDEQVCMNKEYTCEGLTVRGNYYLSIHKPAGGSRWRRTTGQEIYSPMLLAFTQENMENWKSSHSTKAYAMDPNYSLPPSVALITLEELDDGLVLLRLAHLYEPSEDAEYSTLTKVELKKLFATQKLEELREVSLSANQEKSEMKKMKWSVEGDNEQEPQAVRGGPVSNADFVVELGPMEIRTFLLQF

[2] = tested on: β-hexosaminidase (Jack Bean); assay: Glycosidase specificity: β-hexosaminidase; type: biochemical; details: at 0.1 μM Montbretin A
[3] = molecular target: T2, β-glucosidase (Agrobacterium sp.) (Agrobacterium sp., UniProt P12614); assay: Glycosidase specificity: β-glucosidase; type: biochemical
T2 sequence (P12614 1-459): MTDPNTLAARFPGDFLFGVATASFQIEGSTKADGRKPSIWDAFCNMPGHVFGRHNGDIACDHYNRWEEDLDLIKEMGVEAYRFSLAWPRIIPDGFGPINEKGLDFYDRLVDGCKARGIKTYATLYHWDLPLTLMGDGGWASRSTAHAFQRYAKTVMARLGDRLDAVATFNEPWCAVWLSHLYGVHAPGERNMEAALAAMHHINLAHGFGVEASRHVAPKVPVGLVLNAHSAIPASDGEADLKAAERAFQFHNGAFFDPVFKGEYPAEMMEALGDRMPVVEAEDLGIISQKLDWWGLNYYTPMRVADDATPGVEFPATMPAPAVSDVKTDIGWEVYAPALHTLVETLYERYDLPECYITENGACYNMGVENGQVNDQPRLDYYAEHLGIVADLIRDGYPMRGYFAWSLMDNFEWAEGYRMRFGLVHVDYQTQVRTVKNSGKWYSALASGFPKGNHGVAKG
From the text: The subsequent residue of montbretin A is also a β-linked glucose residue, however this residue bears a large 6-O-caffeic ester moiety and would therefore not be processed by Abg. […] Thus, the terminal glucosyl residue on the trisaccharide moiety is not required for α-amylase activity.

[4] = Stability in simulated intestinal fluid (SIF) by UPLC; type: in vitro ADME; details: SIF pH 6.89, 37° C., within 3 hours
Experimental: The stability of montbretin A in both simulated intestinal fluid (SIF) and simulated gastric fluid (SGF) were analyzed via ultra performance liquid chromatography (UPLC). The instrument consisted of a Waters® Acquity™ UPLC system equipped with a PDA and a TQ detector in tandem. The 2 μL sample injection volume was passed through a Waters® Acquity™ BEH C18 column (1.7 μm, 2.1×100 mm), with mobile phases A and B consisting of water with 0.1% formic acid and acetonitrile with 0.1% formic acid, respectively. The mobile phases were delivered at a programmed linear gradient at a column temperature of 35° C. Linearity was evaluated using a set of montbretin A calibration standards with concentrations ranging from 10 to 100 μg/mL in water. […]
To examine the gastrointestinal fluid activity, 0.5 mg/ml solutions of oleamide (positive control) in SGF or SIF were prepared by diluting a 100 μL aliquot of oleamide (50 mg/mL in 2-propanol) to 10 mL with either SGF or SIF and incubated in a 37° C. water bath for 1 or 3 hours, respectively. At time points of 1 or 3 hours, the sample was removed from the water bath and a 100 μL aliquot of the resulting solution was diluted to 1 mL with de-ionized water in a glass UPLC glass sample vial and analyzed by UPLC for oleamide content. […]

SMILES: CC1O[C@@H](O[C@@H]2CO[C@@H](Oc3c(O)cc(-c4oc5cc(O)cc(O)c5c(=O)c4O[C@@H]4OC(C)[C@H](O)[C@H](O)C4O[C@@H]4OC(COC(=O)/C=C/c5ccc(O)c(O)c5)[C@@H](O)[C@@H](O)C4O[C@@H]4OC(CO)[C@@H](O)[C@@H](O)C4O)cc3O)C(O)[C@@H]2O)C(O)[C@@H](O)[C@H]1O (stereo partly drawn) [Montbretin A, montbretin A]
- remaining activity at 0.1 µM [1]: 100%
- RA (%), Residual Enzyme Activity [2]: 99%
- remaining activity at 0.1 µM ([3]; at 0.1 μM Montbretin A, read-out: RA (%), Residual Enzyme Activity): 100%
- inhibition of β-glucosidase from Agrobacterium (Abg) ([3]; extent of inhibition decreasing with time): time dependent inhibition
- inhibition of Abg after pre-incubation ([3]; pre-incubation with Abg prior to addition of assay substrate): no inhibition
- degradation in SIF [4]: no significant degradation

From patent US8431541B2, “Alpha-amylase inhibitors: the montbretins and uses thereof” (The University of British Columbia, priority 2007, dated 2013)
